# Laboratory results published in BindingDB's records for doi:10.1016/j.bmcl.2017.04.068 (Beijing Institute of Pharmacology & Toxicology, 2017).
# Assay: Inhibition of rilpivirine-resistant HIV1 NL4-3 reverse transcriptase E138K mutant infected in human TZM-b1 cells after 2 days by bright Glo-luciferase reporter gene assay
row,Compound,EC50 [nM]
1,Cc1cc(/C=C/C#N)cc(C)c1Oc1cc(Nc2ccc(C#N)cc2)c(N)cc1C(=O)NCCCO,23
2,Cc1cc(/C=C/C#N)cc(C)c1Oc1cc(Nc2ccc(C#N)cc2)c(N)cc1C(=O)OCCC#N,2.9
3,Cc1cc(/C=C/C#N)cc(C)c1Oc1cc(Nc2ccc(C#N)cc2)c(N)cc1C(=O)NCCCl,8.5
4,Cc1cc(/C=C/C#N)cc(C)c1Oc1cc(Nc2ccc(C#N)cc2)c(N)cc1C(=O)N1CC1,8.7
5,COCCOC(=O)c1cc(N)c(Nc2ccc(C#N)cc2)cc1Oc1c(C)cc(/C=C/C#N)cc1C,4.6
